# Read-outs that look alike come from different tables or passages of the source.
# Key:
# [1] = target: T1, rabbit reticulocyte 15-LO (Oryctolagus cuniculus, UniProt P12530); assay: Rabbit Reticulocyte 15-LO Assay (h15LO); format: biochemical; details: for IC50: 2U rabbit reticulocyte 15-LO, 174 μM linoleic acid, 15 minutes at 4° C.; for h15LO, value given as bare %: concentration not given
# T1 construct: Fifteen-lipoxygenase was obtained from phenylhydrazine-treated rabbits and purified per the method of Rapoport; from tissue; host or cells: reticulocytes of phenylhydrazine-treated rabbits
# T1 sequence (P12530 1-663): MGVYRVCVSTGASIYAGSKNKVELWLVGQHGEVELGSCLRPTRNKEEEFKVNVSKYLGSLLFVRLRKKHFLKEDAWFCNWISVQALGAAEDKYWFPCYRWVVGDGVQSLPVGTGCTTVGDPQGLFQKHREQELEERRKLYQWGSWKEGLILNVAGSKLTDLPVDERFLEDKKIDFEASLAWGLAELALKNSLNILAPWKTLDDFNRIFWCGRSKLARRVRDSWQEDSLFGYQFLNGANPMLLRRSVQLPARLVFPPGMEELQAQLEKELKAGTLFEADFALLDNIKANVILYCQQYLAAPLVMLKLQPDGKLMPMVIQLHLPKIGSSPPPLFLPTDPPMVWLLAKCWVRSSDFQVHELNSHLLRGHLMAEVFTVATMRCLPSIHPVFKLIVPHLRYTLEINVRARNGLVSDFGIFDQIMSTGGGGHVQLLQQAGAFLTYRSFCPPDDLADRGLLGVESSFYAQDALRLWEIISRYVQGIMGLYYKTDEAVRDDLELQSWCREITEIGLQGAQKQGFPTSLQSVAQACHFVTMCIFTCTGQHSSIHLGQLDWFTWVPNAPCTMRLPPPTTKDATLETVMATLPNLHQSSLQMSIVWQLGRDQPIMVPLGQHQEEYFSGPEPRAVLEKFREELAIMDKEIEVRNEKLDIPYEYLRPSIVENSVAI
# How it was run: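 Linoleic acid oxidation to 13-HPODE measured at 4° C. over 15 minutes, using 174 μM substrate and 2U enzyme purified from phenylhydrazine-treated rabbits in PBS/0.2% Na cholate. Product peak areas calibrated with authentic 13-HODE; inhibition expressed versus maximal reaction.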
# [2] = Table 1, read-out: h15LO % Inhibition at 10 μM
smiles,measurement,setting,value
"CSc1ccc(C(=O)Nc2ccccc2)cc1NC(=S)Nc1cc(Cl)cc(Cl)c1 [Example 106, 3-[3-(3,5-Dichlorophenyl)-thioureido]-4-methylsulfanyl-N-phenyl-benzamide]",IC50,[1]; Table 2,11 nM
same,melting point,,172 to 175 °C
"Cc1ccc(NC(=O)c2ccc(O)c(Nc3cc(Cl)cc(Cl)c3)c2)cc1 [Example 58, 3-(3,5-Dichloro-phenylamino)-4-hydroxy-N-(4-methylphenyl)-benzamide]",IC50,[1]; Table 2,80 nM
same,melting point,,179 to 183 °C
"COc1ccc(C(=O)Nc2ccccc2)cc1Nc1ccc(C2=NC(C)(C)CO2)cc1 [Example 44, 3-[4-(4,4-Dimethyl-4,5-dihydro-oxazol-2-yl)-phenylamino]-4-methoxy-N-phenyl-benzamide]",IC50,[1]; Table 2,25 nM
same,melting point,,221 to 222 °C
"COc1ccc(C(=O)Nc2ccc(Cl)cc2)cc1NC(=S)Nc1cc(Cl)cc(Cl)c1 [Example 92, N-(4-Chlorophenyl)-3-[3-(3,5-dichlorophenyl)-thioureido]-4-methoxy-benzamide]",IC50,[1]; Table 2,17 nM
same,melting point,,180 to 185 °C
"COc1ccc(C(=O)Nc2ccccc2)cc1NS(=O)(=O)c1cccc2ccccc12 [Example 133, 3-(Naphthalene-1-sulfonylamino)-4-methoxy-N-phenyl-benzamide]",IC50,[1]; Table 2,58 nM
same,melting point,,212 to 213 °C
"COc1ccc(C(=O)Nc2ccccc2)cc1Nc1ccc(C)cc1 [Example 34, 3-(4-Methyl-phenylamino)-4-methoxy-N-phenyl-benzamide]",IC50,[1]; Table 2,29 nM
same,melting point,,187 to 188 °C
"COc1ccc(C(=O)Nc2ccccc2)cc1NS(=O)(=O)c1cccc(Cl)c1 [Example 123, 3-(3-Chloro-benzenesulfonylamino)-4-methoxy-N-phenyl-benzamide]",IC50,[1]; Table 2,31 nM
same,melting point,,197 to 199 °C
"COc1ccc(C(=O)Nc2ccccc2)cc1NC(=S)Nc1ccccc1C [Example 98, 4-Methoxy-N-phenyl-3-(3-o-tolyl-thioureido)-benzamide]",IC50,[1]; Table 2,1000 nM
same,melting point,,172 to 174 °C
"CCOc1ccc(C(=O)Nc2ccccc2)cc1NC(=S)Nc1cc(Cl)cc(Cl)c1 [Example 80, 3-[3-(3,5-Dichlorophenyl)-thioureido]-4-ethoxy-N-phenyl-benzamide]",IC50,[1]; Table 2,39 nM
same,melting point,,201 to 202 °C
"COc1ccccc1Nc1cccc(C(=O)Nc2ccccc2)c1 [Example 27, 3-(2-Methoxy-phenylamino)-N-phenyl-benzamide]",inhibition at 10 µM,"[1]; 0.25 h, Table 2, read-out: h15LO % @ 10 μM",48%
same,melting point,,153 to 154 °C
"COc1ccc(C(=O)Nc2ccccc2)cc1NS(=O)(=O)c1ccc(C)cc1 [Example 124, 3-(4-Methyl-benzenesulfonylamino)-4-methoxy-N-phenyl-benzamide]",IC50,[1]; Table 2,48 nM
same,melting point,,200 to 202 °C
"COc1ccc(C(=O)Nc2cc(C)cc(C)c2)cc1N [Example 11, 3-Amino-4-methoxy-N-(3,5-dimethylphenyl)-benzamide]",IC50,[1]; Table 1,390 nM
same,melting point,,155 to 162 °C
"COc1ccc(C(=O)Nc2ccccc2)cc1NC(=S)Nc1cccc(C(C)=O)c1 [Example 76, 3-[3-(3-Acetyl-phenyl)-thioureido]-4-methoxy-N-phenyl-benzamide]",IC50,[1]; Table 2,48 nM
same,melting point,,176 to 177 °C
"COc1ccc(C(=O)Nc2ccccc2)cc1NCc1ccccc1 [Example 50, 3-Benzylamino-4-methoxy-N-phenyl-benzamide]",IC50,[1]; Table 2,846 nM
same,melting point,,164 to 165 °C
"CCOc1ccc(C(=O)Nc2ccccc2)cc1Nc1cccc(C(F)(F)F)c1 [Example 42, 4-Ethoxy-3-(3-trifluoromethyl-phenylamino)-N-phenyl-benzamide]",IC50,[1]; Table 2,410 nM
same,melting point,,184 to 185 °C
"COc1ccc(NC(=O)c2ccc(Cl)c(Cl)c2)cc1N [Example 23, 3,4-Dichloro-N-(3-amino-4-methoxyphenyl)-benzamide]",IC50,[1]; Table 1,26 nM
same,melting point,,215 to 218 °C
"COc1ccc(C(=O)Nc2cccnc2)cc1Nc1cccc(C(F)(F)F)c1 [Example 45, 4-Methoxy-3-(3-trifluoromethyl-phenylamino)-N-(3-pyridyl)-benzamide]",IC50,[1]; Table 2,440 nM
same,melting point,,184 to 185 °C
"CCOc1ccc(C(=O)Nc2ccccc2)cc1N [Example 10, 3-Amino-4-ethoxy-N-phenyl-benzamide]",inhibition at 10 µM,[1]; [2],42%
same,melting point,,189 to 190 °C
"COc1ccccc1Nc1cc(C(=O)Nc2ccccc2)ccc1OC [Example 29, 3-(2-Methoxy-phenylamino)-4-methoxy-N-phenyl-benzamide]",IC50,[1]; Table 2,> 3000 nM
same,melting point,,155 to 156 °C
"COc1ccc(C(=O)Nc2ccc(F)cc2)cc1Nc1cc(C)cc(C)c1 [Example 46, 4-Methoxy-3-(3,5-dimethyl-phenylamino)-N-(4-fluorophenyl)-benzamide]",IC50,[1]; Table 2,20 nM
same,melting point,,199 to 200 °C
"Nc1cc(C(=O)Nc2ccc(F)cc2)ccc1OC(F)(F)F [Example 146, 3-Amino-4-trifluoromethoxy-N-(4-fluoro-phenyl)-benzamide]","h15LO, value given as bare %",[1]; Table 2,35.29%
same,melting point,,139 to 140 °C
"CCc1ccc(C(=O)Nc2ccc(Cl)c(Cl)c2)cc1N [Example 18, 3-Amino-4-ethyl-N-(3,4-dichlorophenyl)-benzamide]",IC50,[1]; Table 1,2510 nM
same,melting point,,115 to 117 °C
"COc1ccc(C(=O)Nc2ccc(F)cc2)cc1N [Example 8, 3-Amino-4-methoxy-N-(4-fluorophenyl)-benzamide]",IC50,[1]; Table 1,157 nM
same,melting point,,164 to 167 °C
"COc1ccc(CNc2ccccc2)cc1NS(=O)(=O)c1cc(Cl)cc(Cl)c1 [Example 209, 3,5-Dichloro-N-(2-methoxy-5-phenylaminomethyl-phenyl)-benzenesulfonamide]","h15LO, value given as bare %",[1]; Table 2,80.94%
same,melting point,,105 to 108 °C
"COc1ccc(C(=O)Nc2ccccc2)cc1NC(=S)Nc1ccc(S(N)(=O)=O)cc1 [Example 90, 4-Methoxy-N-phenyl-3-[3-(4-sulfamoyl-phenyl)-thioureido]-benzamide]",IC50,[1]; Table 2,24 nM
same,melting point,,193 to 195 °C
"COc1ccc(C(=O)Nc2ccccc2)cc1NS(=O)(=O)c1cccc2cccnc12 [Example 130, 3-(Quinoline-8-sulfonylamino)-4-methoxy-N-phenyl-benzamide]",IC50,[1]; Table 2,402 nM
same,melting point,,187 to 188 °C
"COc1ccc(C(=O)Nc2ccccc2)cc1NC(=S)Nc1ccc(F)cc1 [Example 78, 3-[3-(4-Fluorophenyl)-thioureido]-4-methoxy-N-phenyl-benzamide]",IC50,[1]; Table 2,390 nM
same,melting point,,182 to 183 °C
"O=C(Nc1ccccc1)c1ccc(F)c(Nc2ccccc2)c1 [Example 37, 3-Phenylamino-4-fluoro-N-phenyl-benzamide]",IC50,[1]; Table 2,2940 nM
same,melting point,,132 to 133 °C
"COc1ccc(C(=O)Nc2cccnc2)cc1N [Example 5, 3-Amino-4-methoxy-N-(3-pyridyl)-benzamide]",IC50,[1]; Table 1,38 nM
same,melting point,,193 to 196 °C
"COc1ccc(C(=O)Nc2ccccc2)cc1NC(=S)Nc1cccnc1 [Example 81, 4-Methoxy-N-phenyl-3-(3-pyridin-3-yl-thioureido)-benzamide]",IC50,[1]; Table 2,19 nM
same,melting point,,178 to 179 °C
"COc1ccc(C(=O)Nc2ccccc2)cc1NS(=O)(=O)c1cc(Cl)sc1Cl [Example 132, 3-(2,5-Dichlorothiophene-3-sulfonylamino)-4-methoxy-N-phenyl-benzamide]",IC50,[1]; Table 2,115 nM
same,melting point,,189 to 190 °C
"COc1ccc(C(=O)Nc2ccccc2)cc1NC(=S)Nc1cccc(C)c1 [Example 95, 4-Methoxy-N-phenyl-3-(3-m-tolyl-thioureido)-benzamide]",IC50,[1]; Table 2,11 nM
same,melting point,,168 to 171 °C
"COc1ccc(C(=O)Nc2ccc(F)cc2F)cc1N [Example 14, 3-Amino-4-methoxy-N-(2,4-difluorophenyl)-benzamide]",inhibition at 10 µM,[1]; [2],68%
same,melting point,,166 to 168 °C
"COc1ccc(NC(=S)Nc2cc(C(=O)Nc3ccccc3)ccc2OC)cc1 [Example 83, 4-Methoxy-3-[3-(4-methoxy-phenyl)-thioureido]-N-phenyl-benzamide]",IC50,[1]; Table 2,81 nM
same,melting point,,168 to 169 °C
"COc1ccc(C(=O)Nc2ccccc2)cc1NC(=S)Nc1cccc(C#N)c1 [Example 74, 3-[3-(3-Cyanophenyl)-thioureido]-4-methoxy-N-phenyl-benzamide]",IC50,[1]; Table 2,14.9 nM
same,melting point,,183 to 185 °C
"COc1ccc(C(=O)Nc2ccccc2)cc1NC(=S)Nc1ccc(S(=O)(=O)O)cc1 [Example 82, 4-[3-(2-Methoxy-5-phenylcarbamoyl-phenyl)-thioureido]-benzenesulfonic Acid]",IC50,[1]; Table 2,124 nM
same,melting point,,> 280 °C

# Reference: patent US6528528B2 (Warner-Lambert Company, priority 1997, dated 2003)
